The text below walks through data of publication PMC9862023, “Isosarcophytoxide Derivatives with a 2,5-Dihydrofuran Moiety from the Soft Coral Sarcophyton cinereum” (Molecules, 2023).

Data set [1] relates to human small cell lung cancer (H1688) cells. As to the kind of experiment: Cytotoxicity MTT assay, H1688 cell line. It is filed as cell-based. As to conditions: 37 °C, 24 h, read-out: cytotoxicity toward H1688 cell line, IC50. The method, then: The cytotoxicities of compounds were analyzed by using the human small cell lung cancer H1688 cell line and the 3-(4,5-dimethylthiazol-2-yl)-2,5-diphenyl tetrazolium bromide (MTT, Sigma-Aldrich, St. Louis, MO, USA) assay at 37 °C for 24 h.

Data set [2] can be described thus: Cell viability of dendritic cells (CCK-8). The class given is cell-based, murine. As to conditions: mouse, dendritic cells (DCs), CCK-8, 37 °C, read-out: cytotoxicity against DCs, IC50. The method, then:
The DCs (1 × 10^6) were treated with tested compounds (100 μg/mL) and cultured at 37 °C for 24 h. Cytotoxicity was examined using a Cell Counting Kit-8 (CCK-8; Dojindo Molecular Technologies, Inc., Kumamoto, Japan) according to the manufacturer’s protocol. The absorbance was recorded on a microplate reader (Tecan Group Ltd., Männedorf, Switzerland) at a wavelength of 450 nm.

In data set [3] the test system is TNF-α expression in LPS-stimulated murine dendritic cells (DCs). As to the kind of experiment: TNF-α expression by LPS-induced DCs (ELISA). It is filed as cell-based. As to conditions: Mus musculus, Dendritic cell, 100 ng/mL LPS, 24 h, read-out: inhibition of TNF-α expression in LPS-stimulated DCs, IC50. The method, then: The TNF-α expressions of LPS-induced DCs were measured by enzyme-link immunosorbent assay (ELISA), in the same way as the previously reported method. The DCs were treated with 100 ng/mL lipopolysaccharide (LPS) and the isolated compounds for 24 h. The optical density of the production of TNF-α was measured at 450 nm by the ELISA reader.
In general terms: In an ELISA, binding on a coated surface is turned into a signal by an enzyme label.

Molecules are shown by their SMILES.

By IC50 is commonly meant the concentration that inhibits the measured activity by half. For `C=C[C@@](C)(Cl)[C@@H](Cl)/C=C/C(=C/Cl)C(Cl)Cl` (relative stereo) [(3R*,4S*,5E,7Z)-7-dichlorothyl-3,4,8-trichloro-3-methylocta-1,5,7-triene], the IC50 in data set [1] came out at 4.2 ± 2.1 µM.

In the case of `O=c1c(O)c(-c2ccc(O)c(O)c2)oc2cc(O)cc(O)c12` [Quercetin], the IC50 at 24 h in data set [2] came to 78.8 ± 7.3 µM. Besides, the IC50 in data set [3] came out at 23.1 ± 5.2 µM.

On to `COC1OC2C=C(C)CCC=C(C)CCC3OC3(C)CCC2=C1C` (stereo not drawn) [compound 3, 16β-Methoxyisosarcophytoxide], for which the IC50 in data set [1] was found to be 27.5 ± 6.4 µM.

Regarding `COC1OC2C=C(C)CCC=C(C)CCC3OC3(C)CCC2=C1C` (stereo not drawn) [compound 4, 16α-Methoxyisosarcophytoxide], the IC50 in data set [1] was found to be 85.8 µM.
